Measured values: paper PMC11432795, “Mutagenesis of the Peptide Inhibitor of ASIC3 Channel Introduces Binding to Thumb Domain of ASIC1a but Reduces Analgesic Activity” (Marine Drugs, 2024)
Positions of bridges follow the written chain, without caps; N, C: chain ends. Residues, ends and D or L forms follow the SMILES beside them. No end group written: not given here.

Tests used:
[1] = cited from earlier work; for analgesic effects: ref [16],[17]; for analgesic effect on thermal hypersensitivity caused by inflammation: ref [31],[32]
Text: Selective ligands targeting specific ASIC isoforms are invaluable for structural and functional investigations. Peptide ligands sourced from various animal venoms have emerged as such tools. […] Bot ... || The 29-amino acid peptide Ugr9a-1, isolated from the venom of the northern sea anemone Urticina grebelnyi, represents a structural class of toxins termed “boundless β-hairpin”. […] While the significant involvement of ASIC3 channels in acid-induced, chronic neuropathic and inflammatory pain has been extensively reported, the role of ASIC1a remains less clear.

[2] = test system: ASIC1a channel; conditions: cited from earlier work
Text: Selective ligands targeting specific ASIC isoforms are invaluable for structural and functional investigations. Peptide ligands sourced from various animal venoms have emerged as such tools. […] Bot ...

[3] = test system: ASIC1a D355A mutant channel; conditions: ref [23],[28]; cited from earlier work
Text: (§1) Electrophysiological experimentation confirmed the activity of recombinant S16K and A23K mutants against rat ASIC1a channels. […] This fact was in good agreement with molecular docking results that predicted tighter interactions of the lysine residue at position 23 with Asp355 and Glu357 residues of the channel. […] To confirm the critical role of th ...

[4] = test system: ASIC1a E357A mutant channel; conditions: ref [23],[28]; cited from earlier work
Text: as §1

[5] = target: T1, rat ASIC1a channel (Rattus norvegicus, UniProt P55926); experiment: Two-electrode voltage clamp, rat ASIC1a in X. laevis oocytes; type: cell-based; conditions: pH 5.5 stimulus, mean ± S.E.M., 5 cells
T1 construct: expressed in transfected cells; host or cells: Xenopus laevis oocytes injected with mRNA made from a pCI-rASIC1a plasmid
T1 sequence (P55926 1-526): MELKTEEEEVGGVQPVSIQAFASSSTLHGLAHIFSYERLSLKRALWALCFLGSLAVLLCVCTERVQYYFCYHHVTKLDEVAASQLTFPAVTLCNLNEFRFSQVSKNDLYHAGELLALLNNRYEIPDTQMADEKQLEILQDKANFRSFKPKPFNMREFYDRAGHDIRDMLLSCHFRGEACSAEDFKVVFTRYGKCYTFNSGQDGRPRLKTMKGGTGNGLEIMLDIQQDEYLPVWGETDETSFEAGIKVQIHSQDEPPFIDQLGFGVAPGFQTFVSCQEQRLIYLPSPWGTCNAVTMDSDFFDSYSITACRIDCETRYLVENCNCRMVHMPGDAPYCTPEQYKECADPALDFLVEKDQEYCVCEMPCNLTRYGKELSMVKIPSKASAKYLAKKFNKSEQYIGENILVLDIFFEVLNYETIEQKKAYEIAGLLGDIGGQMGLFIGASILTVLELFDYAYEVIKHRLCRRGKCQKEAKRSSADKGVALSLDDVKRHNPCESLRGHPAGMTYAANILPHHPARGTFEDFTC
Description: (§2) Figure 3 The effect of mutant peptides S16K and A23K on rat ASIC1a and ASIC3 channels. […] (B) Dose–response curves for the inhibitory effect of mutant peptides on ASIC1a. Each data point represents data from 5 cells. (C) Representative current traces of Ugr9-1, S16K, and A23K at a concentration of 12.5 µM on ASIC3. […] Each point represents data from 5 cells. The depicted currents were induced by a pH 5.5 stimulus following a conditioning pH of 7.4, with peptides applied for 30 s before the pH stimulus. The holding potential (Vh) was −50 mV, and the time interval between applications ranged from 1 to 2 min. Data are presented as mean ± S.E.M.
(§3) A small portion of the ovary was isolated from frogs under anesthesia induced by a 0.17% solution of procaine methanesulphonate (MS222) (Sigma), followed by treatment with collagenase (1 mg/mL) at room temperature for 2 h. Oocytes at stages IV and V, devoid of follicular membranes, were transferred to ND-96 medium (containing 96 mM NaCl, 5 mM HEPES, 2 mM KCl, 1.8 mM CaCl2, 1 mM MgCl2, pH 7.4). mRNA synthesis was performed from pcDNA3.1 vectors (Invitrogen, Carlsbad, CA, USA) containing the rat ASIC3 gene, as well as pCI vectors containing genes for rat ASIC1a, its mutant analogues, and ASIC1b. mRNA (2.5–10 ng) was then injected into the oocytes. For the ASIC1a/3 heteromeric channels, the mRNA encoding the ASIC1a and ASIC3 subunits were injected in a 1:5 ratio, respectively. Subsequently, the oocytes were incubated for 2–3 days at a temperature of 17–19 °C in ND96 medium supplemented with gentamicin and streptomycin (20 µg/mL each).
(§4) Whole-cell electrophysiological recordings of ASIC channels were conducted using a two-electrode voltage-clamp setup. Microelectrodes were filled with 3 M KCl. Recordings from oocytes were carried out at a holding potential of −50 mV, with data filtered at 10 Hz and sampled at a rate of 100 Hz using an L780M ADC (LCard, Moscow, Russia). The synchronized delivery of solutions into the chamber and recording of electrophysiological results were carried out using in-house software v.2. Activation of ASIC channels occurred through rapid pH changes in the solution, achieved by replacing the working solution in the chamber with ND96-based solutions at varying pH levels. Specifically, HEPES was substituted with 10 mM MES for pH 5.5–6.5 and MOPS for pH 6.7–7.0.
(§5) Fresh peptide solutions were meticulously prepared in ND96 buffer with a pH of 7.43 immediately before experiments, with strict control over the pH levels. Peptides were applied for 30 s at a conditioning pH of 7.43 before acid stimulation of the channel. The interval between applications was maintained at a minimum of 1.5 to 2 min.
(§6) Electrophysiological data analysis was conducted using OriginPro 2018 software (OriginLab, Northampton, MA, USA). Dose–response relationships for Ugr9a-1, S16K, and A23K peptides were fitted using a Hill function: F1(x) = A − A/(1 + (x/IC50)^nH), where F1(x) represents the amplitude of the current at concentration x of the peptide, A is the maximum amplitude of the current, IC50 is the half-maximum inhibitory concentration of the peptide, and nH is the Hill coefficient.

[6] = target: T2, rat ASIC3 channel (Rattus norvegicus, UniProt O35240); experiment: Two-electrode voltage clamp, rat ASIC3 in X. laevis oocytes; type: cell-based; conditions: pH 5.5 stimulus, mean ± S.E.M., 5 cells
T2 construct: expressed in transfected cells; host or cells: Xenopus laevis oocytes injected with mRNA made from pcDNA3.1-rat ASIC3
T2 sequence (O35240 1-533): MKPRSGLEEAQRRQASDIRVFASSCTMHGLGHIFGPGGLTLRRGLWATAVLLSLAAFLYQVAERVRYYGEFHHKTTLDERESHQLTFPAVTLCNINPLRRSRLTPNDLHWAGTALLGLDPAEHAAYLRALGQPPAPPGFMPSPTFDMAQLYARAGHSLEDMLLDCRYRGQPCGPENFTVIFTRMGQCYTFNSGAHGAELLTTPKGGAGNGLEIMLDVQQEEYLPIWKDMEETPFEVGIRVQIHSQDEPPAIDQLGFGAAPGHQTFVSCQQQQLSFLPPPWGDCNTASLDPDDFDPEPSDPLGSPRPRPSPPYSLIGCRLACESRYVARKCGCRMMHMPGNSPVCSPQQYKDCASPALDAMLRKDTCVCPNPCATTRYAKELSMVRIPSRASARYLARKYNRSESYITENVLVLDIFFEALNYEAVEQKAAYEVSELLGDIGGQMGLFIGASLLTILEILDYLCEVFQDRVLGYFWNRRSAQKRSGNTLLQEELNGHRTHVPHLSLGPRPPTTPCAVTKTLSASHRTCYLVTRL
Description: as §2, §3, §4, §5, §6

[7] = target: rat ASIC3 channel (homomeric) (rat) (UniProt O35240)

## PcTx1 (EDCIPKWKGCVNRHGDCCEGLECWKRRRSFEVCVPKTPKT; ends and bridges not checked; cysteine pairing not given here; UniProt P60514 1-40, looked up)
[1]
  analgesic effects: demonstrate analgesic effects
[2]; ref [11],[12],[13]
  modulation of ASIC1a: selectively modulates ASIC1a and ASIC1a-containing channels by stabilizing the desensitized state

## O=C(O)C[C@H](C(=O)O)[C@@H](OC(=O)C1=Cc2cc(O)c(O)cc2[C@@H](c2ccc(O)c(O)c2)[C@@H]1C(=O)O[C@@H](C(=O)O)[C@H](CC(=O)O)C(=O)O)C(=O)O [sevanol]
[1]
  analgesic effect on thermal hypersensitivity caused by inflammation: substantial analgesic effects

## Mamb-1 (LKCYQHGKVVTCHRDMKFCYHNTGMPFRNLKLILQGCSSSCSETENNKCCSTDRCNK; ends and bridges not checked; cysteine pairing not given here; UniProt P0DKR6 22-78, looked up)
[1]
  analgesic effects: demonstrate analgesic effects
[2]; ref [14],[15]
  modulation of ASIC1-containing channels: negatively modulates ASIC1-containing channels but by stabilizing the closed state
[3]
  effect of D355A channel mutation on inhibitory potential: did not substantially alter the inhibitory potential
[4]
  effect of E357A channel mutation on inhibitory potential: did not substantially alter the inhibitory potential

## CC[C@H](C)[C@H](N)C(=O)N[C@@H](CO)C(=O)N[C@H](C(=O)N[C@@H](CC(=O)O)C(=O)N1CCC[C@H]1C(=O)N1CCC[C@H]1C(=O)N[C@H]1CSSC[C@@H]2NC(=O)[C@H](CC(N)=O)NC(=O)CNC(=O)[C@H](CCCCN)NC(=O)CNC(=O)[C@H](CC(=O)O)NC(=O)[C@H](CCCNC(=N)N)NC(=O)[C@H](Cc3c[nH]cn3)NC(=O)[C@H](Cc3ccc(O)cc3)NC(=O)[C@H](CSSC[C@@H](C(=O)NCC(=O)N[C@@H](C)C(=O)N[C@H](C(=O)O)C(C)C)NC(=O)CNC(=O)[C@H](Cc3ccc(O)cc3)NC(=O)[C@H](C)NC(=O)[C@H](CC(=O)O)NC(=O)[C@H](Cc3ccc(O)cc3)NC(=O)[C@H](C(C)C)NC2=O)NC(=O)[C@H](Cc2ccccc2)NC(=O)[C@H](CCCNC(=N)N)NC1=O)[C@@H](C)CC [S16K] (H-ISIDPPCRFCYHRDGKGNCVYDAYGCGAV-OH; disulfide 7-19, 10-26)
[5]; inhibition of rat ASIC1a, conditioning pH 7.4
  Hill slope (nH): 2.86 ± 0.09
[5]; rat ASIC1a, X. laevis oocytes, TEVC, Vh −50 mV, conditioning pH 7.4, peptide 30 s before stimulus, read-out: half-maximal inhibitory concentration (IC50)
  IC50: 22.7 ± 0.42 µM
[6]; inhibition of rat ASIC3, conditioning pH 7.4
  nH: 2.16 ± 0.24
[6]; rat ASIC3, X. laevis oocytes, TEVC, Vh −50 mV, conditioning pH 7.4, peptide 30 s before stimulus
  IC50: 35.8 ± 4.03 µM

## COc1cc2c(cc1O)[C@H](Cc1ccc(Oc3cc(C[C@@H]4NCCc5cc(OC)c(O)cc54)ccc3O)cc1)NCC2 [lindoldhamine]
[1]
  analgesic effect on thermal hypersensitivity caused by inflammation: substantial analgesic effects

## Ugr9a-1 peptide from the venom of the sea anemone Urticina grebelnyi
[7]
  IC50 of inhibition of the pH 5.5-evoked current of rASIC3, two-electrode voltage clamp on X. laevis oocytes: 14.2 µM
